# Test results from ChEMBL document CHEMBL1130827, “Molecular lipophilicity potential by CLIP, a reliable tool for the description of the 3D distribution of lipophilicity: application to 3-phenyloxazolidin-2-one, a prototype series of reversible MAOA inhibitors” (Bioorg Med Chem Lett, 1998).
# Legend:
# [1] = Partition coefficient (logP); assay type: physicochemical; settings: octanol/water
# [2] = Logarithm of capacity factor was determined; assay type: ADME
# [3] = biological target: T1, Amine oxidase [flavin-containing] A (Homo sapiens, UniProt P21397); assay: Monoamine oxidase A inhibitory potency; settings: read-out: KiA
# T1 sequence (P21397 whole entry): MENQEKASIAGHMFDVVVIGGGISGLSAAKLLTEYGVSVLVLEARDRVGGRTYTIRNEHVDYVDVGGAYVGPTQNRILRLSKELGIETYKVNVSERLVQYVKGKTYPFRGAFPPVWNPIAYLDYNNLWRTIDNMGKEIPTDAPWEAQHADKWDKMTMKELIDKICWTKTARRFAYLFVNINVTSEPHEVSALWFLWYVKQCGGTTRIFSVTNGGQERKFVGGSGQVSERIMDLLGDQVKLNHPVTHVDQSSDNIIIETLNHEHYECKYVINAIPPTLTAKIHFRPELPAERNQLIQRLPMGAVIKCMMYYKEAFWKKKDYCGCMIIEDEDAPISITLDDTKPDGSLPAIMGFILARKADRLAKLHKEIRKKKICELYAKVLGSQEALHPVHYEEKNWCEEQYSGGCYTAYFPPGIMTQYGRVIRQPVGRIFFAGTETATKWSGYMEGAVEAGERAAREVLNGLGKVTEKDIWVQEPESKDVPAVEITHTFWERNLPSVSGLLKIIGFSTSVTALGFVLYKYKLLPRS
logP [1],Log kw [2],Ki [3],SMILES
3.03,3.08,28 nM,C=C(C)CCOc1ccc(N2C[C@H](COC)OC2=O)cc1
1.17,1.17,220 nM,COC[C@H]1CN(c2ccc(OCC(C)O)cc2)C(=O)O1 (stereo partly drawn)
1.84,1.58,29 nM,COC[C@H]1CN(c2ccc(OCCCCO)cc2)C(=O)O1
2.27,1.88,13 nM,COC[C@H]1CN(c2ccc(OCCCC(C)O)cc2)C(=O)O1 (stereo partly drawn)
2.7,2.21,170 nM,COC[C@H]1CN(c2ccc(OCC[C@@H](C)OC)cc2)C(=O)O1
1.37,1.43,46 nM,COC[C@H]1CN(c2ccc(OCCC(C)=O)cc2)C(=O)O1
1.27,1.3,1.6 nM,COC[C@H]1CN(c2ccc(CCCO)cc2)C(=O)O1
1.71,1.6,6.5 nM,COC[C@H]1CN(c2ccc(OCC[C@@H](C)O)cc2)C(=O)O1
0.77,1,390 nM,COC[C@H]1CN(c2ccc(OCCO)cc2)C(=O)O1
1.13,1,80 nM,COC[C@H]1CN(c2ccc(CCO)cc2)C(=O)O1
2.48,2.45,3.5 nM,COC[C@H]1CN(c2ccc(OCC[C@@H](O)C(F)(F)F)cc2)C(=O)O1 [BEFLOXATONE]
